Read-outs that look alike come from different tables or passages of the source.
Assays:
Nude Mouse Skin [1] = assay: In vivo skin recovery following papain treatment: percent urinary recovery 7 days after papain (Example 1B); set-up: species or system congenitally athymic nude mice
Procedure: Experiments were conducted to measure the time required for papain-treated mice to return to normal levels of absorption. These experiments were conducted as described in Example 1A, except that following the removal of papain from the mouse's skin, the mice were maintained separately in metabolism cages for varying periods of time prior to the application of the labeled model compounds. After various time intervals, 150 μl of radiolabeled chemicals were applied separately on the 1 cm^2 marked areas on the backs of the mice, where papain had previously been applied. The mice were then kept in separate metabolism cages and at time intervals of 17, 41, and 65 hours, urine was collected and counted using a scintillation counter.

[2] = tested on: Papain-Treated Athymic Nude Mice Skin; assay: In vitro permeation through excised papain-treated athymic nude mouse skin, Franz-type diffusion cells (Example 2); type: in vitro ADME, congenitally athymic nude mice
Procedure: Because of some complications encountered during studies utilizing papain treatment by in vivo method (e.g. extended excretion due to storage in various body compartments, delayed response times, etc.) it was decided that additional studies should be conducted wherein the mouse skin was allowed to recover in situ, then excised after various time intervals and evaluated by in vitro permeation methods.
These experiments were conducted by preparing, applying, and occluding papain solutions onto the backs of congenitally athymic nude mice in the same manner as described in Example 1A. At the end of the 24-hour papain treatment, the skin was again cleansed of excess solution. Skin was then excised from part of the animals. The remainder of the animals were housed individually in regular cages for various periods of time (24 hours and 48 hours), after which the treated areas were excised. Immediately following excision of the treated areas, the skins were mounted over Franz-Type, Single-Compartment Diffusion Cells. Four hundred μl of saturated solutions of radiolabeled citric acid, TEAB, glucose, and hydrocortisone were applied, individually, to the exposed surface of the mounted skins on the donor chamber. Saturated solutions of each of these substances were used in order to ensure maximum availability of labeled substances. At varying time intervals, 100 μl samples were removed from the receiver chambers for scintillation counting. All experiments were conducted at 25° C.

Nude Mouse Skin [3] = assay: Percent urinary recovery of radiolabeled chemicals and protein through nude mouse skin immediately following papain treatment, and controls (Example 1A)
Procedure: Various anionic, cationic, and nonionic chemicals were utilized as model compounds to determine the influence of proteolytic enzymes of the transdermal penetration of these substances. […] Additional studies were performed using ^14 -C-labeled albumin, lysozyme, and insulin to determine the ability of the proteolytic enzymes to enhance the percutaneous absorption of larger molecules.
Two hundred μl of this solution was applied on to 1 cm^2 areas on the back of congenitally athymic nude mice. The 1 cm^2 areas were covered with folded gauze pads to absorb the excess papain solution, then the areas were occluded with a transparent dressing (Bioclusive Tape) and an adhesive tape. Each mouse was individually housed in separate cages for 24 hours. At the end of this time, residual papain on the surface of the mouse's skin was removed by washing. After cleansing the skin, 150 μl of radiolabeled material was applied separately on each marked area of mouse skin and covered with gauze sponge and Bioclusive tape and adhesive tape. Mice were kept in metabolism cages, one animal per cage, and urine samples collected for scintillation counting to determine the quantity of radiolabeled materials being excreted. Parallel studies were conducted simultaneously on non- papain-treated living mice. These studies served as controls against which the treated animals were measured.

mouse skin [4] = assay: Citric acid penetration through mouse skin with two sources of papain (Example 8); type: in vitro ADME; conditions: FIG. 20, 0.170 mg papain in 0.1 ml of water; Sigma papain not activated
Procedure: Each enzyme preparation contained 0.170 mg of papain dissolved in 0.1 ml of water. One sample of papain was obtained from Allergan. The other was obtained from Sigma Chemical. […] The Sigma Chemical papain was not activated in this experiment.

[5] = Effect of pH on drug penetration through normal untreated hairless mouse skin (Example 6A); type: in vitro ADME; conditions: mouse
[6] = tested on: hairless mouse skin pretreated with Sigma papain; assay: Effect of pH on drug penetration through hairless mouse skin pretreated with Sigma papain (Example 6B); type: in vitro ADME; set-up: E: unit not given here; conditions: for E: Sigma papain 0.093 mg/ml for 24 hours
Procedure: (§1) B. Effect of pH on drug penetration through hairless mouse skin pretreated with Sigma papain of concentration 0.093 mg/ml for 24 hours

[7] = as above; type: in vitro ADME; set-up: E: unit not given here; conditions: mouse, read-out: P (permeability)
Procedure: as §1

mouse skin [8] = tested on: mouse skin
From the text: In this experiment, varying amounts of Sigma papain, activated with cysteine and EDTA, were used.

skin = assay: Pretreatment of skin samples with papain: drug penetration, skin damage and activation
Procedure: Whatever the enzyme or enzymes selected, each is typically admixed with a liquid, such as water or ethanol to form an enzyme preparation. The concentration of enzymes(s) in liquid will be of a sufficient quantity to increase the skin's permeability to selected drugs over a predetermined time period. […] Concentrations of papain in water will generally be greater than about 0.019 milligrams/milliliter (mg/ml). Preferred concentrations of papain in water will be less than about 0.093 mg/ml.
For example, papain from Sigma Chemical may be activated with the chelating agent ethylenediaminetetraacetic acid ("EDTA"). […] Amounts of EDTA in a papain enzyme preparation will vary from 2 mg/ml to about 20 mg/ml. The amino acid cysteine can also serve as an activating agent.

Hairless mouse skin = conditions: papain 0.093 mg/ml, pH 7.4, 24 hours pretreatment
Procedure: Hairless mouse skin was pretreated with papain at a concentration of 0.093 mg/ml at pH 7.4 for 24 hours.

[9] = tested on: normal untreated hairless mouse skin; assay: Effect of pH on drug penetration through normal untreated hairless mouse skin (Example 6A); type: in vitro ADME; conditions: pH 8.0
mouse skin [10] = assay: Skin damage as measured by bleeding of mouse skin (Example 5); type: in vivo
Procedure: The absolute amounts and relative concentrations of an enzyme preparation containing papain to determine skin damage as measured by bleeding of mouse skin was determined.

[11] = 7 days following papain treatment
[12] = control, no papain treatment, immediate
[13] = immediately following papain treatment
[14] = 7 hours exposure, 1 cm^2 section of skin, saturated solution in water, 25° C
[15] = pH 5.9, read-out: P (permeability)
[16] = pH 6.6, read-out: P (permeability)
[17] = pH 5.9, Sigma papain 0.093 mg/ml for 24 hours, pH 5.9
[18] = pH 6.6, Sigma papain 0.093 mg/ml for 24 hours, pH 6.6
[19] = pH 7.4, Sigma papain 0.093 mg/ml for 24 hours, pH 7.4
[20] = papain greater than 0.093 mg/ml, pH 7.4

In the case of OC[C@H]1OC(O)[C@H](O)[C@@H](O)[C@@H]1O (stereo partly shown) [Glucose, glucose], the “Percent Recovery (urinary recovery)” value (Nude Mouse Skin [1]; [11]) is reported as 0.1%, the transdermal penetration [2] is reported as “about 22 mg” and the “Percent Recovery (urinary recovery)” value (Nude Mouse Skin [3]; [12]) is reported as 0.07%. The “Percent Recovery (urinary recovery)” value (Nude Mouse Skin [3]; [13]) was 1.8%.

With O=C(O)CC(O)(CC(=O)O)C(=O)O [Citric Acid, citric acid] the “penetration through mouse skin” value (mouse skin [4]) was “enhanced to a greater extent by the Allergan papain than that of Sigma Chemical”, the “Percent Recovery (urinary recovery)” value (Nude Mouse Skin [1]; [11]) was 0.2% and the transdermal penetration [2, 14] was “about 55 mg”.

For Lysozyme: 14-C-labeled lysozyme, the “Percent Recovery (urinary recovery)” value (Nude Mouse Skin [1]; [11]) was 0.0%.

CC(=O)OCC[N+](C)(C)C.[Cl-] [Acetylcholine Chloride, acetylcholine chloride] gave a Papp [5, 15] of 0.0291 ×10⁻⁶ cm/s, a Papp [5, 16] of 0.026 ×10⁻⁶ cm/s and a Papp ([5]; pH 7.4, read-out: P (permeability)) of 0.032 ×10⁻⁶ cm/s. The Papp ([5]; pH 8.0, read-out: P (permeability)) was 0.0466 ×10⁻⁶ cm/s, the E ([6]; pH 5.9) was 103.09 and the E ([6]; pH 6.6) was 149.23. The E ([6]; pH 7.4) was 100.94, the E ([6]; pH 8.0) was 67.38 and the Papp [7, 17] was 3 ×10⁻⁶ cm/s. It also gave a Papp [7, 18] of 3.88 ×10⁻⁶ cm/s, a Papp [7, 19] of 3.23 ×10⁻⁶ cm/s and a Papp ([7]; pH 8, Sigma papain 0.093 mg/ml for 24 hours, pH 8.0) of 3.14 ×10⁻⁶ cm/s.

For Albumin: 14-C-labeled albumin, the “Percent Recovery (urinary recovery)” value (Nude Mouse Skin [1]; [11]) was 0.0%.

For CC(=O)CC(c1ccccc1)c1c(O)c2ccccc2oc1=O (stereo not shown) [Warfarin, warfarin], the Papp ([7]; Sigma papain 0.093 mg/ml for 24 hours, pH 5.9) was 1.27 ×10⁻⁶ cm/s, the Papp ([7]; Sigma papain 0.093 mg/ml for 24 hours, pH 6.6) was 1.2 ×10⁻⁶ cm/s and the Papp ([7]; Sigma papain 0.093 mg/ml for 24 hours, pH 7.4) was 0.99 ×10⁻⁶ cm/s. The Papp ([7]; Sigma papain 0.093 mg/ml for 24 hours, pH 8.0) was 1.21 ×10⁻⁶ cm/s.

In the case of C[C@]12CCC(=O)C=C1CC[C@@H]1[C@@H]2[C@@H](O)C[C@@]2(C)[C@H]1CC[C@]2(O)C(=O)CO [Hydrocortisone, hydrocortisone], the “Percent Recovery (urinary recovery)” value (Nude Mouse Skin [1]; [11]) is reported as 0.6%, the transdermal penetration ([2]; 7 hours exposure, 1 cm^2 section of skin, saturated solution in ethanol, 25° C) is reported as “about 125 μg” and the “Percent Recovery (urinary recovery)” value (Nude Mouse Skin [3]; [12]) is reported as 2.5%. For the same molecule, the “Percent Recovery (urinary recovery)” value (Nude Mouse Skin [3]; [13]) was 24.7%.

With Insulin: 14-C-labeled insulin the “Percent Recovery (urinary recovery)” value (Nude Mouse Skin [1]; [11]) was 0.0%.

For CC[N+](CC)(CC)CC.[Br-] [TEAB, tetraethylammonium bromide], the “Percent Recovery (urinary recovery)” value (Nude Mouse Skin [1]; mouse, in vivo, topical or ocular) was 5.3%, the “drug penetration through mouse skin” value (mouse skin [8]) was “varies directly with the amount of papain used” and the “penetration through the skin” value (skin) was “increases the penetration”. The transdermal penetration [2, 14] was ~19 mg and the “increase in absorption in comparison to normal, untreated mouse skin” value (Hairless mouse skin) was 33 fold.

C=CCc1ccccc1OCC(O)CNC(C)C (stereo not shown) [Alprenolol, alprenolol] gave an E ([6]; pH 5.9) of 22.39, an E ([6]; pH 6.6) of 17.18 and an E ([6]; pH 7.4) of 7.17. For the same molecule, the E ([6]; pH 8.0) was 7.86 and the “P (permeability)” value ([6]; mouse, pH 8) was 1.65 = 10^-6 cm/sec.

With CC(=O)[C@H]1CC[C@H]2[C@@H]3CCC4=CC(=O)CC[C@]4(C)[C@H]3CC[C@]12C [Progesterone, progesterone] the “P (permeability)” value [9] was 0.247 ×10⁻⁶ cm/s, the Papp [5, 15] was 2.88 ×10⁻⁶ cm/s and the Papp [5, 16] was 2.92 ×10⁻⁶ cm/s. The E ([6]; pH 5.9) was 1.25, the E ([6]; pH 6.6) was 1.50 and the E ([6]; pH 7.4) was 1.17. The E ([6]; pH 8.0) was 1.17, the Papp [7, 17] was 3.6 ×10⁻⁶ cm/s and the Papp [7, 18] was 4.39 ×10⁻⁶ cm/s. It also gave a Papp [7, 19] of 3.41 ×10⁻⁶ cm/s.

B1: papain: A preferred enzyme is papain, which is readily available from Allergan of Irvine, Calif., Sigma Chemical Company of St. Louis, Mo., and other sources (protein, UniProt P00784 134-345, looked up)
Papain: IPEYVDWRQKGAVTPVKNQGSCGSCWAFSAVVTIEGIIKIRTGNLNEYSEQELLDCDRRSYGCNGGYPWSALQLVAQYGIHYRNTYPYEGVQRYCRSREKGPYAAKTDGVRQVQPYNEGALLYSIANQPVSVVLEAAGKDFQLYRGGIFVGPCGNKVDHAVAAVGYGPNYILIKNSWGTGWGENGYIRIKRGTGNSYGVCGLYTSSFYPVKN
In the case of B1, the “penetration of drug through the skin” value (skin; 0.10 molar cysteine with 0.0375 molar EDTA as activating agent) is reported as “greater penetration of drug through the skin”, the drug penetration (skin; [20]) is reported as “greater drug penetration” and the skin damage (skin; [20]) is reported as “damages the skin, possibly leading to bleeding”. For the same molecule, the “time until bleeding observed” value (mouse skin [10]; absolute amount of papain: 0.010 mg/0.108 ml) was > 24 h, the “time until bleeding observed” value (mouse skin [10]; absolute amount of papain: 0.030 mg/0.108 ml) was “about 5.0 hrs” and the “time until bleeding observed” value (mouse skin [10]; absolute amount of papain: 0.050 mg/0.180 ml) was “about 1.5 hrs”. For the same molecule, the “time until bleeding observed” value (mouse skin [10]; absolute amount of papain: 0.070 mg/0.250 ml) was “about 0.5 hrs”, the “time until bleeding observed” value (mouse skin [10]; concentration of papain: 0.010 mg/0.108 ml) was > 24 h and the “time until bleeding observed” value (mouse skin [10]; concentration of papain: 0.020 mg/0.108 ml) was > 24 h. For the same molecule, the “time until bleeding observed” value (mouse skin [10]; concentration of papain: 0.030 mg/0.108 ml) was ~24 h and the “time until bleeding observed” value (mouse skin [10]; concentration of papain: 0.040 mg/0.108 ml) was ~24 h.

Source: US5156846A, “Percutaneous drug delivery system” (University of Utah, priority 1991, dated 1992)
